System: T1, T. afroharzianum esterase (purified extracellular esterase)
T1 construct: 43 kDa by SDS-PAGE and gel filtration; monomeric
Assay: p-nitrophenol release at […] nm, Lineweaver-Burk plot
Type: biochemical, Trichoderma afroharzianum
Settings: 50 mM Tris pH 8, 37 °C (standard assay), 1-10 mM substrate

SMILES: CC(=O)Oc1ccc([N+](=O)[O-])cc1 [p-NPA, p-nitrophenyl acetate]
- Km: 3.33 mM
